Data: patent US9498483B2, “2,3,5-trisubstituted thiophene compounds and uses thereof” (priority 2010, dated 2016)

Assays:
HCV polymerase = target: T1, HCV polymerase (Hepatitis C virus genotype 1b, UniProt Q9WMX2); assay: Polymerase assay of Biological Example 1 (IC50 values of Table 3); assay type: biochemical; conditions: IC50 values of Table 3, polymerase assay of Biological Example 1; read-out: NS5B-enzyme3
T1 construct: (His)6 (C); made in house; host or cells: XL-1 cells (E. coli, by own knowledge)

[1] = test system: HCV replicon I389luc-ubi-neo/NS3-3′/ET in ET (Huh-lucubineo-ET) cells; assay: Replicon assay (Biological Example 2), luciferase readout; assay type: cell-based; conditions: Hepatitis C virus
How it was run: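 EC50 values come from Hill fits of % inhibition of replicon-driven firefly luciferase, relative to no-compound wells. Compounds were serially diluted (10 points, 3-fold, 0.1 nM–50 μM final, 0.5% DMSO) onto ET replicon cells and read after 48 h.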

[2] = ET cells, luciferase activity 48 hours after compound

| Compound | IC50 (HCV polymerase) [nM] | IC50 [1, 2] [nM] | IC50 ([1]; between 100 nM and 5.0 uM) [nM] |
| --- | --- | --- | --- |
| Cc1nc(C)c(S(=O)(=O)N2CC(=O)N(c3cc(C#CC(C)(C)C)sc3C(=O)O)[C@H](C3CCCCC3)C2)s1 [Compound 244, 3-[(R)-2-Cyclohexyl-4-(2,4-dimethyl-thiazole-5-sulfonyl)-6-oxo-piperazin-1-yl]-5-(3,3-dimethyl-but-1-ynyl)-thiophene-2-carboxylic acid] | 2 | ≤ 100 | – |
| O=C(O)c1sc(-c2ccc(Cl)cc2)cc1N1C(=O)CN(S(=O)(=O)c2ccc(N3CC4CC3CO4)nc2)C[C@H]1C1CCCCC1 (stereo partly drawn) [Compound 229, 5-(4-Chloro-phenyl)-3-{(R)-2-cyclohexyl-4-[6-(2-oxa-5-aza-bicyclo[2.2.1]hept-5-yl)-pyridine-3-sulfonyl]-6-oxo-piperazin-1-yl}-thiophene-2-carboxylic acid] | 1 | ≤ 100 | – |
| C[C@@H]1CN(c2ccc(S(=O)(=O)N3CC(=O)N(c4cc(-c5ccccc5)sc4C(=O)O)[C@H](C4CCCCC4)C3)cn2)CCN1C(=O)OC(C)(C)C [Compound 151, (R)-4-{5-[(R)-4-(2-Carboxy-5-phenyl-thiophen-3-yl)-3-cyclohexyl-5-oxo-piperazine-1-sulfonyl]-pyridin-2-yl}-2-methyl-piperazine-1-carboxylic acid tert-butyl ester] | 3 | ≤ 100 | – |
| CC(C)(C)C#Cc1cc(N2C(=O)C(CCO)(CCO)OC[C@H]2C2CCCCC2)c(C(=O)O)s1 [Compound 333, 3-[(R)-5-Cyclohexyl-2,2-bis-(2-hydroxy-ethyl)-3-oxo-morpholin-4-yl]-5-(3,3-dimethyl-but-1-ynyl)-thiophene-2-carboxylic acid] | 10 | – | 100 to 5000 |
| O=C(O)c1sc(-c2ccc(F)cc2)cc1N1C(=O)CN(S(=O)(=O)c2ccc(N3C[C@H]4C[C@@H]3CO4)nc2)C[C@H]1C1CCCCC1 [Compound 273, 3-{(R)-2-Cyclohexyl-4-[(1R,4R)-6-(2-oxa-5-aza-bicyclo[2.2.1]hept-5-yl)-pyridine-3-sulfonyl]-6-oxo-piperazin-1-yl}-5-(4-fluoro-phenyl)-thiophene-2-carboxylic acid] | 1 | ≤ 100 | – |
| O=C(O)c1sc(-c2ccc(F)cc2)cc1N1C(=O)CN(S(=O)(=O)c2ccc(N3CCCOCC3)nc2)C[C@H]1C1CCCCC1 [Compound 186, 3-[(R)-2-Cyclohexyl-4-(6-[1,4]oxazepan-4-yl-pyridine-3-sulfonyl)-6-oxo-piperazin-1-yl]-5-(4-fluoro-phenyl)-thiophene-2-carboxylic acid] | 1 | ≤ 100 | – |
| CC(C)(C)C#Cc1cc(N2C(=O)OC[C@H]2C2CCCCC2)c(C(=O)O)s1 [Compound 181, 3-((R)-4-Cyclohexyl-2-oxo-oxazolidin-3-yl)-5-(3,3-dimethyl-but-1-ynyl)-thiophene-2-carboxylic acid] | 3 | – | 100 to 5000 |
| N[C@H]1CCCN(c2ccc(S(=O)(=O)N3CC(=O)N(c4cc(-c5ccccc5)sc4C(=O)O)[C@H](C4CCCCC4)C3)cn2)C1 [Compound 142, 3-[(R)-4-((S)-3-Amino-3,4,5,6-tetrahydro-2H-[1,2′]bipyridinyl-5′-sulfonyl)-2-cyclohexyl-6-oxo-piperazin-1-yl]-5-phenyl-thiophene-2-carboxylic acid] | 2 | – | 100 to 5000 |
| C[C@@H]1CCCN1c1ccc(S(=O)(=O)N2CC(=O)N(c3cc(-c4ccc(F)cc4)sc3C(=O)O)[C@H](C3CCCCC3)C2)cn1 [Compound 185, 3-{(R)-2-Cyclohexyl-4-[6-((R)-2-methyl-pyrrolidin-1-yl)-pyridine-3-sulfonyl]-6-oxo-piperazin-1-yl}-5-(4-fluoro-phenyl)-thiophene-2-carboxylic acid] | 1 | ≤ 100 | – |
| CC(C)Nc1ccc(S(=O)(=O)N2CC(=O)N(c3cc(-c4ccccc4)sc3C(=O)O)C(C3CCCCC3)C2)cn1 (stereo not drawn) [Compound 85, 3-[2-Cyclohexyl-4-(6-isopropylamino-pyridine-3-sulfonyl)-6-oxo-piperazin-1-yl]-5-phenyl-thiophene-2-carboxylic acid] | 2 | ≤ 100 | – |
| C[C@@H]1CCCN1c1ccc(S(=O)(=O)N2CC(=O)N(c3cc(-c4ccccc4)sc3C(=O)O)[C@@H](C3CCCCC3)C2)cn1 [Compound 131, 3-{(S)-2-Cyclohexyl-4-[6-((R)-2-methyl-pyrrolidin-1-yl)-pyridine-3-sulfonyl]-6-oxo-piperazin-1-yl}-5-phenyl-thiophene-2-carboxylic acid] | 261 | – | 100 to 5000 |
| O=C(O)c1sc(-c2ccc(Cl)cc2)cc1N1C(=O)CN(S(=O)(=O)c2ccc(N3CCOCC3)nc2)C[C@H]1C1CCCCC1 [Compound 199, 5-(4-Chloro-phenyl)-3-[(R)-2-cyclohexyl-4-(6-morpholin-4-yl-pyridine-3-sulfonyl)-6-oxo-piperazin-1-yl]-thiophene-2-carboxylic acid] | 2 | ≤ 100 | – |
| COc1ccc(S(=O)(=O)N2CC(=O)N(c3cc(-c4ccccc4)sc3C(=O)O)C(C3CCCCC3)C2)cc1OC (stereo not drawn) [Compound 102, 3-[2-Cyclohexyl-4-(3,4-dimethoxy-benzenesulfonyl)-6-oxo-piperazin-1-yl]-5-phenyl-thiophene-2-carboxylic acid] | 4.5 | – | 100 to 5000 |
| C[C@@H]1COCCN1c1ccc(S(=O)(=O)N2CC(=O)N(c3cc(-c4ccc(Cl)cc4)sc3C(=O)O)[C@H](C3CCCCC3)C2)cn1 [Compound 226, 5-(4-Chloro-phenyl)-3-{(R)-2-cyclohexyl-4-[6-((R)-3-methyl-morpholin-4-yl)-pyridine-3-sulfonyl]-6-oxo-piperazin-1-yl}-thiophene-2-carboxylic acid] | 9 | ≤ 100 | – |
| CN(C)[C@H]1CCN(c2ccc(S(=O)(=O)N3CC(=O)N(c4cc(-c5ccccc5)sc4C(=O)O)[C@H](C4CCCCC4)C3)cn2)C1 [Compound 156, 3-{(R)-2-Cyclohexyl-4-[6-((S)-3-dimethylamino-pyrrolidin-1-yl)-pyridine-3-sulfonyl]-6-oxo-piperazin-1-yl}-5-phenyl-thiophene-2-carboxylic acid] | 1 | ≤ 100 | – |
| O=C(O)c1sc(-c2ccccc2)cc1N1C(=O)CN(S(=O)(=O)c2ccc(NCCO)nc2)CC1C1CCCCC1 (stereo not drawn) [Compound 86, 3-{2-Cyclohexyl-4-[6-(2-hydroxy-ethylamino)-pyridine-3-sulfonyl]-6-oxo-piperazin-1-yl}-5-phenyl-thiophene-2-carboxylic acid] | 6 | ≤ 100 | – |
| COc1cc(S(=O)(=O)N2CC(=O)N(c3cc(C#CC(C)(C)C)sc3C(=O)O)[C@H](C3CCCCC3)C2)ccc1F [Compound 283, 3-[(R)-2-Cyclohexyl-4-(4-fluoro-3-methoxy-benzenesulfonyl)-6-oxo-piperazin-1-yl]-5-(3,3-dimethyl-but-1-ynyl)-thiophene-2-carboxylic acid] | 4 | ≤ 100 | – |
| CC(C)(C)C#Cc1cc(N2C(=O)CN(S(=O)(=O)c3cccnc3)C[C@H]2C2CCCCC2)c(C(=O)O)s1 [Compound 192, 3-[(R)-2-Cyclohexyl-6-oxo-4-(pyridine-3-sulfonyl)-piperazin-1-yl]-5-(3,3-dimethyl-but-1-ynyl)-thiophene-2-carboxylic acid] | 3 | ≤ 100 | – |
| O=C(O)c1sc(-c2ccccc2)cc1N1C(=O)CN(S(=O)(=O)c2ccc(N3CCN4CCCC4C3)nc2)C[C@H]1C1CCCCC1 (stereo partly drawn) [Compound 157, 3-{(R)-2-Cyclohexyl-4-[6-(hexahydro-pyrrolo[1,2-a]pyrazin-2-yl)-pyridine-3-sulfonyl]-6-oxo-piperazin-1-yl}-5-phenyl-thiophene-2-carboxylic acid] | 1 | ≤ 100 | – |
| Cc1nn(C)cc1S(=O)(=O)N1CC(=O)N(c2cc(C#CC(C)(C)C)sc2C(=O)O)[C@H](C2CCCCC2)C1 [Compound 260, 3-[(R)-2-Cyclohexyl-4-(1,3-dimethyl-1H-pyrazole-4-sulfonyl)-6-oxo-piperazin-1-yl]-5-(3,3-dimethyl-but-1-ynyl)-thiophene-2-carboxylic acid] | 8 | – | 100 to 5000 |
| NCCS(=O)(=O)N1CC(=O)N(c2cc(-c3ccccc3)sc2C(=O)O)C(C2CCCCC2)C1 (stereo not drawn) [Compound 47, 3-[4-(2-Amino-ethanesulfonyl)-2-cyclohexyl-6-oxo-piperazin-1-yl]-5-phenyl-thiophene-2-carboxylic acid] | 88 | ≥ 5000 | 100 to 5000 |
| O=C(O)c1sc(-c2ccccc2)cc1N1C(=O)CN(S(=O)(=O)c2ccc(-c3ccc4c(c3)OCCCO4)nc2)C[C@H]1C1CCCCC1 [Compound 212, 3-{(R)-2-Cyclohexyl-4-[6-(3,4-dihydro-2H-benzo[b][1,4]dioxepin-7-yl)-pyridine-3-sulfonyl]-6-oxo-piperazin-1-yl}-5-phenyl-thiophene-2-carboxylic acid] | 2 | ≤ 100 | – |
| O=C(O)c1sc(-c2ccccc2)cc1N1C(=O)CC(O)CC1C1CCCCC1 (stereo not drawn) [Compound 12] | 45 | – | 100 to 5000 |
| O=C(O)c1sc(-c2ccccc2)cc1N1C(=O)CN(S(=O)(=O)c2cccc3ccccc23)CC1C1CCCCC1 (stereo not drawn) [Compound 110, 3-[2-Cyclohexyl-4-(naphthalene-1-sulfonyl)-6-oxo-piperazin-1-yl]-5-phenyl-thiophene-2-carboxylic acid] | 183 | ≥ 5000 | – |
| CC(C)(C)C#Cc1cc(N2C(=O)CN(S(=O)(=O)c3cccc(F)c3)C[C@H]2C2CCCCC2)c(C(=O)O)s1 [Compound 239, 3-[(R)-2-Cyclohexyl-4-(3-fluoro-benzenesulfonyl)-6-oxo-piperazin-1-yl]-5-(3,3-dimethyl-but-1-ynyl)-thiophene-2-carboxylic acid] | 2 | ≤ 100 | – |
